Here are results for 22 molecules from EP4803513A1, “SUBSTITUTED QUINAZOLINE COMPOUND, PREPARATION METHOD THEREFOR, PHARMACEUTICAL COMBINATION THEREOF, AND USE THEREOF” (Hongyun Biotech Co., Ltd., priority 2023, dated 2025).

The structures appear in SMILES notation.

One experiment deals with BRK-BaF3 cells. Briefly: Cell antiproliferative activity assay (CCK-8), BRK-BaF3. Format: cell-based. The conditions noted are these: 72 h, CCK-8, 3 days incubation. In short, it runs like this:
(§1)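 Growth inhibition over 3 days, with compound serially diluted 3-fold from a 10 µM top concentration. Cells seeded at 100,000 cells/mL; WT-BaF3 medium carried 10% WEHI supernatant as the IL-3 source. Viability read by CCK-8 OD450 after 2-4 h; IC50 from blank-subtracted curve fit.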
One may read the IC50 as the concentration needed to halve the response being measured. `Cc1nn(CCO)cc1Nc1ncc2cc(-c3ccnc(N)c3)cc(C(C)C)c2n1` [I-14]: the half-inhibitory concentration (IC50) was at most 20 nM.
Take `Cc1nn(CCO)cc1Nc1ncc2cc(-c3cccnc3C)cc(C(C)C)c2n1` [I-22]: the half-maximal inhibitory concentration (IC50) was at most 20 nM.
Same read-out and setting: the result for `Cc1nn(CCO)cc1Nc1ncc2cc(-c3cccnc3N)cc(C(C)C)c2n1` [I-27] reads at most 20 nM; that for `Cc1ccncc1-c1cc(C(C)C)c2nc(Nc3cn(CCO)nc3C)ncc2c1` [I-32], at most 20 nM.
Regarding `Cc1nn(CCO)cc1Nc1ncc2cc(-c3cncc(F)c3C)cc(C(C)C)c2n1` [I-36], the 50% inhibitory concentration (IC50) is at most 20 nM.
Same read-out and setting: under `Cc1ccc(-c2cc(C(C)C)c3nc(Nc4cn(CCO)nc4C)ncc3c2)c(F)n1` [I-39] stands 20 to 100 nM; under `Cc1nn(CCO)cc1Nc1ncc2cc(-c3cc(F)cnc3C)cc(C(C)C)c2n1` [I-41], at most 20 nM.
`Cc1ccnc(F)c1-c1cc(C(C)C)c2nc(Nc3cn(CCO)nc3C)ncc2c1` [I-46] had a half-maximal inhibitory concentration (IC50) of at most 20 nM.
`Cc1nn(CCO)cc1Nc1ncc2cc(-c3c(F)ccnc3N)cc(C(C)C)c2n1` [I-48] displayed an IC50 of at most 20 nM.
`Cc1nn(CCCO)cc1Nc1ncc2cc(-c3cccnc3)cc(C(C)C)c2n1` [I-53]: the concentration for half-maximal inhibition (IC50) is at most 20 nM.
In turn, `CC(C)c1cc(-c2cccnc2)cc2cnc(Nc3cn(CCO)nc3C(F)F)nc12` [I-54] registered an IC50 of at most 20 nM.
Same read-out and setting: the result for `CC(C)c1cc(-c2cccnc2)cc2cnc(Nc3cn(CCO)nc3Cl)nc12` [I-55] reads at most 20 nM; that for `Cc1ccncc1-c1cc(C(C)C)c2nc(Nc3cn(CC(C)(C)O)nc3C)ncc2c1` [I-56], at most 20 nM.
Still for that read-out and setting: under `Cc1nn(CC(C)(C)O)cc1Nc1ncc2cc(-c3cccnc3C)cc(C(C)C)c2n1` [I-57] stands at most 20 nM; under `Cc1ccncc1-c1cc(C(C)C)c2nc(Nc3cnn(CCO)c3C)ncc2c1` [I-59], at most 20 nM; under `Cc1nccnc1-c1cc(C(C)C)c2nc(Nc3cn(CCO)nc3Cl)ncc2c1` [I-98], at most 20 nM.
Same read-out and setting: under `Cc1ccnnc1-c1cc(C2CC2)c2nc(Nc3cn(CCO)nc3C)ncc2c1` [I-119] stands at most 20 nM; under `COc1ncncc1-c1cc(C(C)C)c2nc(Nc3cn(CCO)nc3C)ncc2c1` [I-125], at most 20 nM; under `Cc1ncnc(C)c1-c1cc(C(C)C)c2nc(Nc3cnn(CCO)c3)ncc2c1` [I-140], at most 20 nM.
The molecule `Cc1nn(CCO)cc1Nc1ncc2cc(-c3cncnc3C)cc(C3CC3)c2n1` [I-146] showed a half-inhibitory concentration (IC50) of at most 20 nM.
Molecule `Cc1nn(CCO)cc1Nc1ncc2cc(-c3c(C)ncnc3C)cc(C3CC3)c2n1` [I-147] had an IC50 of at most 20 nM.
In the case of `Cc1nn(CCO)cc1Nc1ncc2cc(-c3cc(O)ccc3F)cc(C(C)C)c2n1` [I-160], the IC50 is at most 20 nM.

Another experiment relates to WT-BaF3 cells. In words: Cell antiproliferative activity assay (CCK-8), WT-BaF3 (broad-spectrum cytotoxicity). The experiment is classed as cell-based. As to conditions: 72 h; WT-BaF3 cells (IL-3 supplemented), CCK-8, 3 days incubation. In a few lines: as §1
`Cc1nn(CCO)cc1Nc1ncc2cc(-c3ccnc(N)c3)cc(C(C)C)c2n1` [I-14]: the half-inhibitory concentration (IC50) fell in the range of 500 to 2500 nM.
Regarding `Cc1nn(CCO)cc1Nc1ncc2cc(-c3cccnc3C)cc(C(C)C)c2n1` [I-22], the half-inhibitory concentration (IC50) is 500 to 2500 nM.
Regarding `Cc1nn(CCO)cc1Nc1ncc2cc(-c3cccnc3N)cc(C(C)C)c2n1` [I-27], the IC50 was in the range of 500 to 2500 nM.
`Cc1ccncc1-c1cc(C(C)C)c2nc(Nc3cn(CCO)nc3C)ncc2c1` [I-32] came in with an IC50 of 500 to 2500 nM.
Same read-out and setting: under `Cc1nn(CCO)cc1Nc1ncc2cc(-c3cncc(F)c3C)cc(C(C)C)c2n1` [I-36] stands 500 to 2500 nM.
Take `Cc1ccc(-c2cc(C(C)C)c3nc(Nc4cn(CCO)nc4C)ncc3c2)c(F)n1` [I-39]: the 50% inhibitory concentration (IC50) lay in the range of 100 to 500 nM.
Same read-out and setting: under `Cc1nn(CCO)cc1Nc1ncc2cc(-c3cc(F)cnc3C)cc(C(C)C)c2n1` [I-41] stands above 2500 nM; under `Cc1ccnc(F)c1-c1cc(C(C)C)c2nc(Nc3cn(CCO)nc3C)ncc2c1` [I-46], 500 to 2500 nM; under `Cc1nn(CCO)cc1Nc1ncc2cc(-c3c(F)ccnc3N)cc(C(C)C)c2n1` [I-48], above 2500 nM.
Same read-out and setting: the result for `Cc1nn(CCCO)cc1Nc1ncc2cc(-c3cccnc3)cc(C(C)C)c2n1` [I-53] reads 500 to 2500 nM.
The same measure, in the same setting: the result for `CC(C)c1cc(-c2cccnc2)cc2cnc(Nc3cn(CCO)nc3C(F)F)nc12` [I-54] reads 500 to 2500 nM; that for `CC(C)c1cc(-c2cccnc2)cc2cnc(Nc3cn(CCO)nc3Cl)nc12` [I-55], 500 to 2500 nM; that for `Cc1ccncc1-c1cc(C(C)C)c2nc(Nc3cn(CC(C)(C)O)nc3C)ncc2c1` [I-56], 500 to 2500 nM.
`Cc1nn(CC(C)(C)O)cc1Nc1ncc2cc(-c3cccnc3C)cc(C(C)C)c2n1` [I-57] came in with an IC50 of 100 to 500 nM.
Molecule `Cc1ccncc1-c1cc(C(C)C)c2nc(Nc3cnn(CCO)c3C)ncc2c1` [I-59] registered an IC50 above 2500 nM.
`Cc1nccnc1-c1cc(C(C)C)c2nc(Nc3cn(CCO)nc3Cl)ncc2c1` [I-98] registered an IC50 of 500 to 2500 nM.
Molecule `Cc1ccnnc1-c1cc(C2CC2)c2nc(Nc3cn(CCO)nc3C)ncc2c1` [I-119] gave an IC50 of 500 to 2500 nM.
The molecule `COc1ncncc1-c1cc(C(C)C)c2nc(Nc3cn(CCO)nc3C)ncc2c1` [I-125] registered a half-inhibitory concentration (IC50) above 2500 nM.
Molecule `Cc1ncnc(C)c1-c1cc(C(C)C)c2nc(Nc3cnn(CCO)c3)ncc2c1` [I-140] came in with a concentration for half-maximal inhibition (IC50) of 500 to 2500 nM.
The molecule `Cc1nn(CCO)cc1Nc1ncc2cc(-c3cncnc3C)cc(C3CC3)c2n1` [I-146] came in with a concentration for half-maximal inhibition (IC50) of 500 to 2500 nM.
Molecule `Cc1nn(CCO)cc1Nc1ncc2cc(-c3c(C)ncnc3C)cc(C3CC3)c2n1` [I-147] yielded an IC50 of 500 to 2500 nM.
`Cc1nn(CCO)cc1Nc1ncc2cc(-c3cc(O)ccc3F)cc(C(C)C)c2n1` [I-160] showed a half-maximal inhibitory concentration (IC50) of 100 to 500 nM.

Another experiment deals with T47D cells. In words: Cell antiproliferative activity assay (CCK-8), T47D. Format: cell-based. As to conditions: Homo sapiens, 72 h, breast cancer cell line T47D, incubation for 3 days. Here is the method:
BRK-BaF3, WT-BaF3, WEHI cell line, and breast cancer cell line T47D were cultured using RPMI 1640 Basal medium or DMEM (Dulbecco's Modified Eagle Medium) (Shanghai Peiyuan Biotechnology, L220KJ), supplemented with 10% FBS (Gibco, REF 10099-141C) and 1% P/S (Shanghai Peiyuan Biotechnology, S110JV), in an incubator (Thermo 3020) at 37°C with 5% CO2. Cell viability was above 95%. Cells were passaged at a 3:1 ratio every 3-4 days. For WT-BaF3 cells, WEHI cells were first cultured, and their culture supernatant was filtered through a 0.22 µm filter. This supernatant was added at 10% to the regular culture medium to supplement IL-3 required for WT-BaF3 cell proliferation, which served as the culture medium for WT-BaF3. For testing, cells were first collected and counted, then prepared into a cell suspension at 100,000 cells/mL and plated at 100 µL per well. Drug concentrations started from 10 µM and were serially diluted 3:1. After incubation for 3 days, 20 µL of CCK-8 detection reagent (Targetmol C005) was added to each well. After incubation for 2-4 hours, OD450 was measured using a microplate reader (Varioskan LUX, Thermo Scientific). After subtracting the blank background, the curve was fitted and the IC50 was calculated using XLfit software.
In addition, the following table exemplarily lists the IC50 values of some compounds of the present invention against T47D cells.
In turn, `Cc1nn(CCO)cc1Nc1ncc2cc(-c3ccnc(N)c3)cc(C(C)C)c2n1` [I-14] registered a concentration for half-maximal inhibition (IC50) of 500 to 1000 nM.
`Cc1nn(CCO)cc1Nc1ncc2cc(-c3cccnc3C)cc(C(C)C)c2n1` [I-22] showed a concentration for half-maximal inhibition (IC50) of 500 to 1000 nM.
Regarding `Cc1nn(CCO)cc1Nc1ncc2cc(-c3cccnc3N)cc(C(C)C)c2n1` [I-27], the half-inhibitory concentration (IC50) lay within 500 to 1000 nM.
On the same count and under the same terms, the result for `Cc1ccncc1-c1cc(C(C)C)c2nc(Nc3cn(CCO)nc3C)ncc2c1` [I-32] reads at most 500 nM; that for `Cc1nn(CCO)cc1Nc1ncc2cc(-c3cncc(F)c3C)cc(C(C)C)c2n1` [I-36], at most 500 nM; that for `Cc1ccc(-c2cc(C(C)C)c3nc(Nc4cn(CCO)nc4C)ncc3c2)c(F)n1` [I-39], at most 500 nM.
Take `Cc1nn(CCO)cc1Nc1ncc2cc(-c3cc(F)cnc3C)cc(C(C)C)c2n1` [I-41]: the IC50 lay in the range of 500 to 1000 nM.
In turn, `Cc1ccnc(F)c1-c1cc(C(C)C)c2nc(Nc3cn(CCO)nc3C)ncc2c1` [I-46] displayed an IC50 of at most 500 nM.
Molecule `Cc1nn(CCO)cc1Nc1ncc2cc(-c3c(F)ccnc3N)cc(C(C)C)c2n1` [I-48] returned an IC50 of 500 to 1000 nM.
Regarding `Cc1nn(CCCO)cc1Nc1ncc2cc(-c3cccnc3)cc(C(C)C)c2n1` [I-53], the IC50 was at most 500 nM.
On the same count and under the same terms, under `CC(C)c1cc(-c2cccnc2)cc2cnc(Nc3cn(CCO)nc3C(F)F)nc12` [I-54] stands 500 to 1000 nM; under `CC(C)c1cc(-c2cccnc2)cc2cnc(Nc3cn(CCO)nc3Cl)nc12` [I-55], at most 500 nM.
As to `Cc1ccncc1-c1cc(C(C)C)c2nc(Nc3cn(CC(C)(C)O)nc3C)ncc2c1` [I-56], the IC50 was at most 500 nM.
`Cc1nn(CC(C)(C)O)cc1Nc1ncc2cc(-c3cccnc3C)cc(C(C)C)c2n1` [I-57] gave a concentration for half-maximal inhibition (IC50) of 500 to 1000 nM.
As for `Cc1ccncc1-c1cc(C(C)C)c2nc(Nc3cnn(CCO)c3C)ncc2c1` [I-59], the IC50 was at most 500 nM.
Turning to `Cc1nccnc1-c1cc(C(C)C)c2nc(Nc3cn(CCO)nc3Cl)ncc2c1` [I-98], the IC50 lay in the range of 500 to 1000 nM.
The molecule `Cc1ccnnc1-c1cc(C2CC2)c2nc(Nc3cn(CCO)nc3C)ncc2c1` [I-119] displayed an IC50 of 500 to 1000 nM.
`COc1ncncc1-c1cc(C(C)C)c2nc(Nc3cn(CCO)nc3C)ncc2c1` [I-125] came in with an IC50 of 500 to 1000 nM.
`Cc1ncnc(C)c1-c1cc(C(C)C)c2nc(Nc3cnn(CCO)c3)ncc2c1` [I-140]: the concentration for half-maximal inhibition (IC50) lay within 500 to 1000 nM.
`Cc1nn(CCO)cc1Nc1ncc2cc(-c3cncnc3C)cc(C3CC3)c2n1` [I-146]: the half-inhibitory concentration (IC50) lay in the range of 500 to 1000 nM.
`Cc1nn(CCO)cc1Nc1ncc2cc(-c3c(C)ncnc3C)cc(C3CC3)c2n1` [I-147] returned a half-maximal inhibitory concentration (IC50) of 500 to 1000 nM.
On to `Cc1nn(CCO)cc1Nc1ncc2cc(-c3cc(O)ccc3F)cc(C(C)C)c2n1` [I-160], for which the half-maximal inhibitory concentration (IC50) is at most 500 nM.
